Values of other authors, collected in patent US20110256545A1, “mRNA expression-based prognostic gene signature for non-small cell lung cancer” (priority 2010, published 2011).
Entries after “also recorded” stand apart in the source; their conditions may differ.

Test system: NCI-60 cell lines
Details: the value is the cell line; for Resistant lung cancer cell lines: NCI-60 lung cancer (LC) cell lines classed as resistant to the agent; for Sensitive lung cancer cell lines: NCI-60 lung cancer (LC) cell lines classed as sensitive to the agent

| SMILES | Resistant lung cancer cell lines | Sensitive lung cancer cell lines |
| --- | --- | --- |
| N.N.O=C([O-])C1(C(=O)[O-])CCC1.[Pt+2] [Carboplatin] | LC: EKVX | LC: NCI_H460; also recorded: LC: NCI_H522 |
| N.N.[Cl][Pt][Cl] [Cisplatin] | LC: NCI_H226; also recorded: LC: EKVX | LC: HOP_62; also recorded: LC: NCI_H460 |
| COc1cc([C@@H]2c3cc4c(cc3[C@@H](O[C@@H]3O[C@@H]5CO[C@@H](C)O[C@H]5[C@H](O)[C@H]3O)[C@H]3COC(=O)[C@H]23)OCO4)cc(OC)c1O [Etoposide] | LC: EKVX | LC: HOP_62; also recorded: LC: NIC_H460 |
| CC(=O)O[C@H]1C(=O)[C@@]2(C)[C@H]([C@H](OC(=O)c3ccccc3)[C@]3(O)C[C@H](OC(=O)[C@H](O)[C@@H](NC(=O)c4ccccc4)c4ccccc4)C(C)=C1C3(C)C)[C@]1(OC(C)=O)CO[C@@H]1C[C@@H]2O [Paclitaxel] | LC: HOP_92; also recorded: LC_EKVX | LC: NCI_H460; also recorded: LC: NCI_H522 |
